Measured values reported in ChEMBL document CHEMBL3739373, “1,2,3-Triazole derivatives as antitubercular agents: synthesis, biological evaluation and molecular docking study” (Medchemcomm, 2015).
Converted amounts (≈) assume the structure as drawn.

Assays:
[1] = Cytotoxicity against human THP1 cells assessed as growth inhibition after 48 hrs by MTT assay; format: cell-based, THP-1
[2] = Selectivity index, ratio of GI50 for human PANC1 cells to MIC for dormant phase Mycobacterium tuberculosis H37Ra ATCC 25177; format: toxicity, cell-based, PANC-1; settings: read-out: Selectivity Index
[3] = Selectivity index, ratio of GI50 for human A549 cells to MIC for dormant phase Mycobacterium tuberculosis H37Ra ATCC 25177; format: toxicity, cell-based; settings: read-out: Selectivity Index
[4] = Cytotoxicity against human PANC1 cells assessed as growth inhibition after 48 hrs by MTT assay; format: cell-based, PANC-1
[5] = tested on: Mycobacterium tuberculosis; test: Antitubercular activity against dormant phase Mycobacterium tuberculosis H37Ra ATCC 25177 incubated for 12 days by XTT reduction menadione assay; format: functional, organism-based; settings: 288 h
[6] = Selectivity index, ratio of GI50 for human THP1 cells to MIC for dormant phase Mycobacterium tuberculosis H37Ra ATCC 25177; format: toxicity, cell-based, THP-1; settings: read-out: Selectivity Index
[7] = (§1) Cytotoxicity against human A549 cells assessed as growth inhibition after 48 hrs by MTT assay; format: cell-based; settings: A549 cells
A549 = test: as §1; format: cell-based; settings: a549, 48 h
[8] = Antioxidant activity assessed as DPPH radical scavenging activity after 30 mins by spectrophotometric analysis; format: physicochemical

In the case of `O=[N+]([O-])c1cccc(Cn2cc(COc3ccc(Cl)cc3)nn2)c1`, the GI50 at 48 h ([1]; THP1 cells) is reported as 34.9 µg/mL (≈ 101 µM), the GI90 ([1]; thp-1, 48 h) is reported as 97.6 µg/mL (≈ 283 µM) and the selectivity ratio [2] is reported as > 3.4. The selectivity ratio [3] was > 3.4, the GI50 at 48 h ([4]; PANC1 cells) was > 100 µg/mL and the GI90 ([4]; panc-1, 48 h) was > 100 µg/mL. The IC50 [5] was 2.6 µg/mL (≈ 7.54 µM), the MIC [5] was 29.2 µg/mL (≈ 84.7 µM) and the selectivity ratio [6] was 1.2. The GI50 at 48 h [7] was > 100 µg/mL, the GI90 (A549) was > 100 µg/mL and the IC50 [8] was 21.3 µg/mL (≈ 61.8 µM).
